Data as given in ChEMBL document CHEMBL1201862, “PubChem BioAssay data set” (2004).
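Grown in 96-well plates, cells were treated for 48 hours with each compound at five concentrations. Insufficient inhibition: endpoint recorded as highest concentration tested. GI50 is the concentration that inhibits growth by half.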 Active and inactive are the calls of the source. No stated cut-off is given here; in the data, active = GI50 up to about 1.1 µM and inactive = higher.

Key:
Test in all cases: NCI-60 cell line screen, 48 h
786-0 = system: 786-0
A498 = system: A498
A549 = system: A549
ACHN = system: ACHN
BT-549 = system: BT-549
CAKI-1 = system: CAKI-1
COLO 205 = system: COLO 205
DU-145 = system: DU-145
EKVX = system: EKVX
HCC 2998 = system: HCC 2998
HCT-116 = system: HCT-116
HCT-15 = system: HCT-15
HL-60 = system: HL-60
HOP-62 = system: HOP-62
HOP-92 = system: HOP-92
HT-29 = system: HT-29
Hs-578T = system: Hs-578T
IGROV-1 = system: IGROV-1
K562 = system: K562
KM12 = system: KM12
LOX IMVI = system: LOX IMVI
M14 = system: M14
MCF7 = system: MCF7
MDA-MB-231 = system: MDA-MB-231
MDA-MB-435 = system: MDA-MB-435
MDA-N = system: MDA-N
MOLT-4 = system: MOLT-4
NCI-H226 = system: NCI-H226
NCI-H460 = system: NCI-H460
NCI-H522 = system: NCI-H522
NCI/ADR-RES = system: NCI/ADR-RES
OVCAR-3 = system: OVCAR-3
OVCAR-4 = system: OVCAR-4
OVCAR-5 = system: OVCAR-5
OVCAR-8 = system: OVCAR-8
PC-3 = system: PC-3
RPMI-8226 = system: RPMI-8226
SF-268 = system: SF-268
SF-295 = system: SF-295
SF-539 = system: SF-539
SK-MEL-28 = system: SK-MEL-28
SK-MEL-2 = system: SK-MEL-2
SK-MEL-5 = system: SK-MEL-5
SK-OV-3 = system: SK-OV-3
SN12C = system: SN12C
SNB-19 = system: SNB-19
SNB-75 = system: SNB-75
SR = system: SR
SW-620 = system: SW-620
T47D = system: T47D
TK-10 = system: TK-10
U-251 = system: U-251
UACC-257 = system: UACC-257
UACC-62 = system: UACC-62
UO-31 = system: UO-31
CCRF-CEM = system: CCRF-CEM
Malme-3M = system: Malme-3M
NCI-H23 = system: NCI-H23
RXF 393 = system: RXF 393

`COC(=O)CN(CC1O[C@@H]2OC(C)(C)O[C@@H]2C1NC(C)=O)C(=O)OCc1ccccc1` (stereo partly specified) was tested, and the GI50 (786-0) was > 100 µM (inactive), the GI50 (A498) was > 100 µM (inactive) and the GI50 (A549) was > 100 µM (inactive). The GI50 (ACHN) was > 100 µM (inactive), the GI50 (BT-549) was 59.8 µM (inactive) and the GI50 (CAKI-1) was > 100 µM (inactive). The GI50 (COLO 205) was > 100 µM (inactive), the GI50 (DU-145) was > 100 µM (inactive) and the GI50 (EKVX) was > 100 µM (inactive). For the same compound, the GI50 (HCC 2998) was > 100 µM (inactive), the GI50 (HCT-116) was > 100 µM (inactive) and the GI50 (HCT-15) was greater than 100 µM. The GI50 (HL-60) was > 100 µM (inactive), the GI50 (HOP-62) was > 100 µM (inactive) and the GI50 (HOP-92) was > 100 µM (inactive). The GI50 (HT-29) was > 100 µM (inactive), the GI50 (Hs-578T) was > 100 µM (inactive) and the GI50 (IGROV-1) was > 100 µM (inactive). For the same compound, the GI50 (K562) was > 100 µM (inactive), the GI50 (KM12) was > 100 µM (inactive) and the GI50 (LOX IMVI) was > 100 µM (inactive). For the same compound, the GI50 (M14) was > 100 µM (inactive), the GI50 (MCF7) was > 100 µM (inactive) and the GI50 (MDA-MB-231) was > 100 µM (inactive). The GI50 (MDA-MB-435) was > 100 µM (inactive), the GI50 (MDA-N) was > 100 µM (inactive) and the GI50 (MOLT-4) was > 100 µM (inactive). The GI50 (NCI-H226) was > 100 µM (inactive), the GI50 (NCI-H460) was > 100 µM (inactive) and the GI50 (NCI-H522) was > 100 µM (inactive). For the same compound, the GI50 (NCI/ADR-RES) was > 100 µM (inactive), the GI50 (OVCAR-3) was > 100 µM (inactive) and the GI50 (OVCAR-4) was > 100 µM (inactive). The GI50 (OVCAR-5) was > 100 µM (inactive), the GI50 (OVCAR-8) was > 100 µM (inactive) and the GI50 (PC-3) was > 100 µM (inactive). The GI50 (RPMI-8226) was > 100 µM (inactive), the GI50 (SF-268) was > 100 µM (inactive) and the GI50 (SF-295) was > 100 µM (inactive). For the same compound, the GI50 (SF-539) was > 100 µM (inactive), the GI50 (SK-MEL-28) was > 100 µM (inactive) and the GI50 (SK-MEL-2) was > 100 µM (inactive). For the same compound, the GI50 (SK-MEL-5) was > 100 µM (inactive), the GI50 (SK-OV-3) was > 100 µM (inactive) and the GI50 (SN12C) was > 100 µM (inactive). For the same compound, the GI50 (SNB-19) was > 100 µM (inactive), the GI50 (SNB-75) was > 100 µM (inactive) and the GI50 (SR) was > 100 µM (inactive). The GI50 (SW-620) was > 100 µM (inactive), the GI50 (T47D) was > 100 µM (inactive) and the GI50 (TK-10) was > 100 µM (inactive). For the same compound, the GI50 (U-251) was > 100 µM (inactive), the GI50 (UACC-257) was > 100 µM (inactive) and the GI50 (UACC-62) was > 100 µM (inactive). For the same compound, the GI50 (UO-31) was > 100 µM (inactive).

For `O=C1c2c(Br)sc(Br)c2[C@H]2OC(=S)N[C@@H]12`, the GI50 (786-0) was 11.3 µM (inactive), the GI50 (A498) was 18.3 µM (inactive) and the GI50 (A549) was 17.1 µM (inactive). For the same compound, the GI50 (ACHN) was 4.45 µM (inactive), the GI50 (BT-549) was 10 µM (inactive) and the GI50 (CAKI-1) was 3.25 µM (inactive). The GI50 (CCRF-CEM) was 0.624 µM (active), the GI50 (COLO 205) was 2.51 µM (inactive) and the GI50 (DU-145) was 12.8 µM (inactive). The GI50 (EKVX) was 4.89 µM (inactive), the GI50 (HCC 2998) was 10.6 µM (inactive) and the GI50 (HCT-116) was 2.81 µM (inactive). For the same compound, the GI50 (HCT-15) was 1.88 µM, the GI50 (HOP-62) was 13.5 µM (inactive) and the GI50 (HOP-92) was 11.9 µM (inactive). For the same compound, the GI50 (HT-29) was 2 µM (inactive), the GI50 (Hs-578T) was 11.8 µM (inactive) and the GI50 (IGROV-1) was 10.1 µM (inactive). For the same compound, the GI50 (K562) was 2.29 µM (inactive), the GI50 (KM12) was 14.4 µM (inactive) and the GI50 (LOX IMVI) was 3.02 µM (inactive). For the same compound, the GI50 (M14) was 1.95 µM (inactive), the GI50 (MCF7) was 9.38 µM (inactive) and the GI50 (MDA-MB-231) was 12.1 µM (inactive). The GI50 (MDA-MB-435) was 2.96 µM (inactive), the GI50 (MDA-N) was 5.04 µM (inactive) and the GI50 (MOLT-4) was 2.17 µM (inactive). For the same compound, the GI50 (Malme-3M) was 3.73 µM (inactive), the GI50 (NCI-H226) was 17.1 µM (inactive) and the GI50 (NCI-H23) was 5.15 µM (inactive). For the same compound, the GI50 (NCI-H460) was 16.6 µM (inactive), the GI50 (NCI-H522) was 1.69 µM (inactive) and the GI50 (NCI/ADR-RES) was 8.51 µM (inactive). The GI50 (OVCAR-3) was 2.6 µM (inactive), the GI50 (OVCAR-4) was 6.07 µM (inactive) and the GI50 (OVCAR-5) was 17.1 µM (inactive). For the same compound, the GI50 (OVCAR-8) was 3.5 µM (inactive), the GI50 (PC-3) was 4.07 µM (inactive) and the GI50 (RPMI-8226) was 4.68 µM (inactive). For the same compound, the GI50 (RXF 393) was 3.14 µM (inactive), the GI50 (SF-268) was 3.27 µM (inactive) and the GI50 (SF-295) was 15.2 µM (inactive). For the same compound, the GI50 (SF-539) was 16.6 µM (inactive), the GI50 (SK-MEL-28) was 2.79 µM (inactive) and the GI50 (SK-MEL-2) was 13.6 µM (inactive). The GI50 (SK-MEL-5) was 11 µM (inactive), the GI50 (SK-OV-3) was 15.7 µM (inactive) and the GI50 (SN12C) was 3.21 µM (inactive). The GI50 (SNB-19) was 15.2 µM (inactive), the GI50 (SNB-75) was 16.1 µM (inactive) and the GI50 (SR) was 1.67 µM (inactive). For the same compound, the GI50 (SW-620) was 2.43 µM (inactive), the GI50 (T47D) was 12.1 µM (inactive) and the GI50 (TK-10) was 20.2 µM (inactive). The GI50 (U-251) was 2.78 µM (inactive), the GI50 (UACC-257) was 7.08 µM (inactive) and the GI50 (UACC-62) was 11.8 µM (inactive). The GI50 (UO-31) was 1.75 µM (inactive).

In the case of `CN1CC(c2ccccc2)C(O)(C2(c3ccccc3)CN(C)CC(c3ccccc3)C2=O)C(c2ccccc2)C1` (stereo unspecified), the GI50 (786-0) is reported as > 100 µM (inactive), the GI50 (A498) is reported as 91.2 µM (inactive) and the GI50 (A549) is reported as > 100 µM (inactive). The GI50 (ACHN) was > 100 µM (inactive), the GI50 (BT-549) was > 100 µM (inactive) and the GI50 (CAKI-1) was > 100 µM (inactive). For the same compound, the GI50 (COLO 205) was 93.3 µM (inactive), the GI50 (DU-145) was > 100 µM (inactive) and the GI50 (EKVX) was > 100 µM (inactive). For the same compound, the GI50 (HCT-116) was 75.3 µM (inactive), the GI50 (HCT-15) was greater than 100 µM and the GI50 (HL-60) was 22.4 µM (inactive). The GI50 (HOP-62) was 77.1 µM (inactive), the GI50 (HOP-92) was 50.1 µM (inactive) and the GI50 (HT-29) was > 100 µM (inactive). For the same compound, the GI50 (Hs-578T) was 23.1 µM (inactive), the GI50 (IGROV-1) was > 100 µM (inactive) and the GI50 (K562) was > 100 µM (inactive). For the same compound, the GI50 (KM12) was > 100 µM (inactive), the GI50 (LOX IMVI) was > 100 µM (inactive) and the GI50 (M14) was > 100 µM (inactive). For the same compound, the GI50 (MCF7) was > 100 µM (inactive), the GI50 (MDA-MB-231) was > 100 µM (inactive) and the GI50 (MDA-MB-435) was > 100 µM (inactive). The GI50 (MDA-N) was > 100 µM (inactive), the GI50 (MOLT-4) was > 100 µM (inactive) and the GI50 (NCI-H226) was > 100 µM (inactive). For the same compound, the GI50 (NCI-H23) was > 100 µM (inactive), the GI50 (NCI-H460) was 45.8 µM (inactive) and the GI50 (NCI-H522) was > 100 µM (inactive). For the same compound, the GI50 (NCI/ADR-RES) was > 100 µM (inactive), the GI50 (OVCAR-3) was > 100 µM (inactive) and the GI50 (OVCAR-4) was > 100 µM (inactive). For the same compound, the GI50 (OVCAR-5) was > 100 µM (inactive), the GI50 (OVCAR-8) was > 100 µM (inactive) and the GI50 (PC-3) was > 100 µM (inactive). For the same compound, the GI50 (RPMI-8226) was > 100 µM (inactive), the GI50 (SF-268) was > 100 µM (inactive) and the GI50 (SF-295) was 55.2 µM (inactive). The GI50 (SF-539) was > 100 µM (inactive), the GI50 (SK-MEL-28) was > 100 µM (inactive) and the GI50 (SK-MEL-2) was > 100 µM (inactive). The GI50 (SK-MEL-5) was > 100 µM (inactive), the GI50 (SN12C) was > 100 µM (inactive) and the GI50 (SNB-19) was > 100 µM (inactive). The GI50 (SR) was > 100 µM (inactive), the GI50 (SW-620) was > 100 µM (inactive) and the GI50 (T47D) was > 100 µM (inactive). The GI50 (TK-10) was > 100 µM (inactive), the GI50 (U-251) was > 100 µM (inactive) and the GI50 (UACC-257) was > 100 µM (inactive). The GI50 (UACC-62) was > 100 µM (inactive) and the GI50 (UO-31) was > 100 µM (inactive).
